Source: the NIST ThermoML archive (doi:10.1016/j.fluid.2014.12.037)
Numbers after ± are expanded uncertainties.

Columns and labels:
[1] = Crystal; DTA
[2] = Molar enthalpy of transition or fusion; conditions: Crystal; DSC

For `N=C(N)N.O=[N+]([O-])O` [guanidine nitrate], the Normal melting temperature [1] was 214.02 ± 2 °C and the “Molar enthalpy of transition or fusion” value [2] was 6.04 ± 0.146 kcal/mol.
